Measured values from patent US20070043000A1, “Immunosuppresive effects of pteridine derivatives” (priority 2003, published 2007).

Each compound was assayed on TNF-alpha production by PBMC (assay: TNF-alpha assay, LPS-stimulated PBMC, sandwich ELISA). Settings: Table 2; LPS 1 μg/ml, 72 hours; read-out: TNF IC50.
Format: cell-based, human
Description: (§1) All reagents were dissolved in 0.5 ml dimethylsulfoxide (hereinafter referred as DMSO) and further diluted in culture medium before use for the following in vitro experiments. The commercially available culture medium consisted of RPMI-1640+10% foetal calf serum (FCS). Peripheral blood mononuclear cells (herein referred as PBMC), in response to stimulation by lipopolysaccharide (LPS), a gram-negative bacterial endotoxin, produce various […], in particular human TNF-alpha and II-1 beta. The inhibition of the activation of PBMC can be measured by the level of suppression of the production of TNF-alpha or IL-1 beta by PBMC in response to stimulation by LPS. Such inhibition measurement was performed as follows: PBMC were isolated from heparinized peripheral blood (Buffy coat) by density gradient centrifugation. LPS is then added to the PMBC suspension in complete medium (10^6 cells/ml) at a final concentration of 1 μg/ml. The compound to be tested was added at different dilution levels, and the cells were incubated at 37° C. for 72 hours. The supernatants were collected, and TNF-alpha or II-1 beta concentrations were measured with respectively an anti-TNF antibody or an anti-IL-1 beta antibody in a sandwich ELISA. The percent inhibition was calculated as: % inhibition=(pg/ml in sample−pg/ml min.)/(pg/ml max.−pg/ml min.)−1 wherein: min.: pg/ml in culture medium without test compound, and • max.: pg/ml in culture medium+LPS without test compound.
Compound COc1ccc(-c2nc3c(=O)[nH]c(=O)n(C)c3nc2Cl)cc1OC [Example 19, 1-methyl-6-(3′,4′-dimethoxyphenyl)-7-chloro-lumazine] has an IC50 of 1.1 µM. Work on Cn1c(=O)[nH]c2nc(Cl)c(-c3ccccc3)nc2c1=O [Example 6, 3-methyl-6-phenyl-7-chloro-lumazine] yielded an IC50 of 3 µM. O=c1[nH]c(=O)n(Cc2ccccc2)c2nc(Cl)c(-c3ccccc3)nc12 [Example 18, 1-benzyl-6-phenyl-7-chloro-lumazine] gave an IC50 of 4.5 µM. O=c1[nH]c(=O)n(-c2ccccc2)c2nc(Cl)c(-c3ccccc3)nc12 [Example 17, 1,6-diphenyl-7-chloro-lumazine] showed an IC50 of 0.8 µM. With Cn1c(=O)[nH]c(=O)c2nc(-c3ccc(Cl)cc3)c(Cl)nc21 [Example 20, 1-methyl-6-(4′-chlorophenyl)-7-chloro-lumazine] the IC50 was 3.8 µM. For Cc1ccc(-c2nc3c(=O)[nH]c(=O)n(C)c3nc2Cl)cc1 [Example 16, 1-methyl-6-(4′-methylphenyl)-7-chloro-lumazine], the IC50 was 1.1 µM.

Same assay, conditions: Table 7; same conditions as example 26; read-out: TNFα IC50
Cn1c(=O)n(Cc2ccccc2)c(=O)c2nc(-c3ccccc3)c(Cl)nc21 [Example 59, 7-chloro-3-benzyl-1-methyl-6-phenyl-lumazine] showed an IC50 of 5.3 µM. COc1cccc(-c2nc3c(=O)[nH]c(=O)n(C)c3nc2Cl)c1 [Example 43, 7-chloro-6-(3-methoxyphenyl)-1-methyl-lumazine] was tested, and the IC50 was 3.7 µM. Cn1c(=O)n(CCN2CCOCC2)c(=O)c2nc(-c3ccccc3)c(Cl)nc21 [Example 74, 7-chloro-1-methyl-3-(2-morpholinoethyl)-6-phenyl-lumazine] gave an IC50 of 2.6 µM. With COc1cccc(OC)c1-c1nc2c(=O)[nH]c(=O)n(C)c2nc1Cl [Example 44, 7-chloro-(2,6-dimethoxyphenyl)-1-methyl-lumazine] the IC50 was 5.9 µM. Cn1c(=O)n(CCCC#N)c(=O)c2nc(-c3ccccc3)c(Cl)nc21 [Example 67, 3-butyronitrile-7-chloro-1-methyl-6-phenyl-lumazine] gave an IC50 of 0.7 µM. In the case of CCCCOC(=O)NCCn1c(=O)c2nc(-c3ccccc3)c(Cl)nc2n(C)c1=O [Example 75, 3-(2-butyloxycarbonyl-aminoethyl)-7-chloro-1-methyl-6-phenyl-lumazine], the IC50 is reported as 3.5 µM. Cn1c(=O)n(CCN2CCCC2)c(=O)c2nc(-c3ccccc3)c(Cl)nc21 [Example 78, 7-chloro-1-methyl-6-phenyl-3-(2-pyrrolidinoethyl)-lumazine] showed an IC50 of 7.4 µM. For Cn1c(=O)n(CCc2ccccc2)c(=O)c2nc(-c3ccccc3)c(Cl)nc21 [Example 58, 7-chloro-3-(2-phenylethyl)-1-methyl-6-phenyl-lumazine], the IC50 was 5.5 µM. CCOC(=O)CCCn1c(=O)c2nc(-c3ccc(OC)cc3)c(Cl)nc2n(C)c1=O [Example 73, 7-chloro-3-(ethyl butyrate)-1-methyl-6-(4-methoxyphenyl)-lumazine] was tested, and the IC50 was 0.6 µM.

What follows are compounds tested on peripheral blood mononuclear cells (PBMC) (assay: Mixed lymphocyte reaction (MLR) test). Settings: Table 2; [3H]-thymidine incorporation after 5 days incubation.
Format: cell-based, human
Description: All reagents were dissolved in 0.5 ml dimethylsulfoxide (hereinafter referred as DMSO) and further diluted in culture medium before use for the following in vitro experiments. The commercially available culture medium consisted of RPMI-1640+10% foetal calf serum (FCS). Peripheral blood mononuclear cells (hereinafter referred as PBMC) were isolated from heparinized peripheral blood by density gradient centrifugation over Lymphoprep (Nycomed, Maorstua, Norway). Allogeneic PBMC or […]-Barr Virus-transformed human B cells [commercially available under the trade name RPMI1788 (ATCC name CCL156)] which strongly express B7-1 and B7-2 antigens were used as stimulator cells after irradiation with 30 Gy. MLR was performed in triplicate wells. After 5 days incubation at 37° C., 1 μCi [^3H]-thymidine was added to each cup. After a further 16 hours incubation, cells were harvested and counted in a β-counter. Inhibition of proliferation by a compound (drug) described in some of the previous examples was counted using the formula: [formula] wherein cpm is the thymidine count per minute. TNF-Alpha and IL-1 Beta Assays
In the case of COc1ccc(-c2nc3c(=O)[nH]c(=O)n(C)c3nc2Cl)cc1OC [Example 19, 1-methyl-6-(3′,4′-dimethoxyphenyl)-7-chloro-lumazine], the IC50 is reported as 5.1 µM. O=c1[nH]c(=O)n(Cc2ccccc2)c2nc(Cl)c(-c3ccccc3)nc12 [Example 18, 1-benzyl-6-phenyl-7-chloro-lumazine] gave an IC50 of 4.4 µM. For O=c1[nH]c(=O)n(-c2ccccc2)c2nc(Cl)c(-c3ccccc3)nc12 [Example 17, 1,6-diphenyl-7-chloro-lumazine], the IC50 was 3 µM. For Cc1ccc(-c2nc3c(=O)[nH]c(=O)n(C)c3nc2Cl)cc1 [Example 16, 1-methyl-6-(4′-methylphenyl)-7-chloro-lumazine], the IC50 was 3.6 µM.

Same assay, conditions: Table 7; same conditions as example 26
Work on Cn1c(=O)n(Cc2ccccc2)c(=O)c2nc(-c3ccccc3)c(Cl)nc21 [Example 59, 7-chloro-3-benzyl-1-methyl-6-phenyl-lumazine] yielded an IC50 of 5 µM. Work on COc1cccc(-c2nc3c(=O)[nH]c(=O)n(C)c3nc2Cl)c1 [Example 43, 7-chloro-6-(3-methoxyphenyl)-1-methyl-lumazine] yielded an IC50 of 4.9 µM. With Cn1c(=O)n(CCN2CCOCC2)c(=O)c2nc(-c3ccccc3)c(Cl)nc21 [Example 74, 7-chloro-1-methyl-3-(2-morpholinoethyl)-6-phenyl-lumazine] the IC50 was 4.2 µM. For COc1cccc(OC)c1-c1nc2c(=O)[nH]c(=O)n(C)c2nc1Cl [Example 44, 7-chloro-(2,6-dimethoxyphenyl)-1-methyl-lumazine], the IC50 was 4.9 µM. With Cn1c(=O)n(CCCC#N)c(=O)c2nc(-c3ccccc3)c(Cl)nc21 [Example 67, 3-butyronitrile-7-chloro-1-methyl-6-phenyl-lumazine] the IC50 was 4.8 µM. For CCCCOC(=O)NCCn1c(=O)c2nc(-c3ccccc3)c(Cl)nc2n(C)c1=O [Example 75, 3-(2-butyloxycarbonyl-aminoethyl)-7-chloro-1-methyl-6-phenyl-lumazine], the IC50 was 5.1 µM. Compound Cn1c(=O)n(CCN2CCCC2)c(=O)c2nc(-c3ccccc3)c(Cl)nc21 [Example 78, 7-chloro-1-methyl-6-phenyl-3-(2-pyrrolidinoethyl)-lumazine] has an IC50 of 4.4 µM. Cn1c(=O)n(CCc2ccccc2)c(=O)c2nc(-c3ccccc3)c(Cl)nc21 [Example 58, 7-chloro-3-(2-phenylethyl)-1-methyl-6-phenyl-lumazine] was tested, and the IC50 was 5.6 µM. For CCOC(=O)CCCn1c(=O)c2nc(-c3ccc(OC)cc3)c(Cl)nc2n(C)c1=O [Example 73, 7-chloro-3-(ethyl butyrate)-1-methyl-6-(4-methoxyphenyl)-lumazine], the IC50 was 4.9 µM.

Each compound was assayed on IL-1 beta production by PBMC (assay: IL-1 beta assay, LPS-stimulated PBMC, sandwich ELISA). Settings: Table 2; LPS 1 μg/ml, 72 hours; read-out: IL-1 IC50.
Format: cell-based, human
Description: as §1
Cn1c(=O)[nH]c2nc(Cl)c(-c3ccccc3)nc2c1=O [Example 6, 3-methyl-6-phenyl-7-chloro-lumazine] was tested, and the IC50 was 0.4 µM. O=c1[nH]c(=O)n(-c2ccccc2)c2nc(Cl)c(-c3ccccc3)nc12 [Example 17, 1,6-diphenyl-7-chloro-lumazine] showed an IC50 of 0.2 µM. Cn1c(=O)[nH]c(=O)c2nc(-c3ccc(Cl)cc3)c(Cl)nc21 [Example 20, 1-methyl-6-(4′-chlorophenyl)-7-chloro-lumazine] gave an IC50 of 0.4 µM.

Same assay, conditions: Table 7; same conditions as example 26; read-out: IL1β IC50
Cn1c(=O)n(Cc2ccccc2)c(=O)c2nc(-c3ccccc3)c(Cl)nc21 [Example 59, 7-chloro-3-benzyl-1-methyl-6-phenyl-lumazine] was tested, and the IC50 was 0.5 µM. Work on COc1cccc(-c2nc3c(=O)[nH]c(=O)n(C)c3nc2Cl)c1 [Example 43, 7-chloro-6-(3-methoxyphenyl)-1-methyl-lumazine] yielded an IC50 of 2 µM. Cn1c(=O)n(CCN2CCOCC2)c(=O)c2nc(-c3ccccc3)c(Cl)nc21 [Example 74, 7-chloro-1-methyl-3-(2-morpholinoethyl)-6-phenyl-lumazine] gave an IC50 of 0.7 µM. Compound COc1cccc(OC)c1-c1nc2c(=O)[nH]c(=O)n(C)c2nc1Cl [Example 44, 7-chloro-(2,6-dimethoxyphenyl)-1-methyl-lumazine] has an IC50 of 0.5 µM. For Cn1c(=O)n(CCCC#N)c(=O)c2nc(-c3ccccc3)c(Cl)nc21 [Example 67, 3-butyronitrile-7-chloro-1-methyl-6-phenyl-lumazine], the IC50 was 0.6 µM. For CCCCOC(=O)NCCn1c(=O)c2nc(-c3ccccc3)c(Cl)nc2n(C)c1=O [Example 75, 3-(2-butyloxycarbonyl-aminoethyl)-7-chloro-1-methyl-6-phenyl-lumazine], the IC50 was 0.7 µM. Cn1c(=O)n(CCN2CCCC2)c(=O)c2nc(-c3ccccc3)c(Cl)nc21 [Example 78, 7-chloro-1-methyl-6-phenyl-3-(2-pyrrolidinoethyl)-lumazine] was tested, and the IC50 was 0.8 µM. Cn1c(=O)n(CCc2ccccc2)c(=O)c2nc(-c3ccccc3)c(Cl)nc21 [Example 58, 7-chloro-3-(2-phenylethyl)-1-methyl-6-phenyl-lumazine] was tested, and the IC50 was 0.5 µM. CCOC(=O)CCCn1c(=O)c2nc(-c3ccc(OC)cc3)c(Cl)nc2n(C)c1=O [Example 73, 7-chloro-3-(ethyl butyrate)-1-methyl-6-(4-methoxyphenyl)-lumazine] showed an IC50 of 0.5 µM.
